# Experimental data from Sander's compilation of Henry's law constants.
# Legend:
# [1] = Henry solubility constant Hcp at 290 K (mol/(m3 Pa)); settings: reference: Thomas et al. (2006)
# [2] = Henry solubility constant Hcp at 298.15 K (mol/(m3 Pa))
# [3] = Henry solubility constant Hcp at 278 K (mol/(m3 Pa))
# [4] = Henry solubility constant Hcp at 294 K (mol/(m3 Pa))
# [5] = Henry solubility constant Hcp at 288 K (mol/(m3 Pa))
# [6] = Henry solubility constant Hcp at 297 K (mol/(m3 Pa))
# [7] = Henry solubility constant Hcp at 301 K (mol/(m3 Pa)); settings: reference: Nelson and Hoff (1968)
# [8] = Henry solubility constant Hcp at 303 K (mol/(m3 Pa))
# [9] = Henry solubility constant Hcp at 293 K (mol/(m3 Pa))
# [10] = Henry solubility constant Hcp at 296 K (mol/(m3 Pa))
# [11] = Henry solubility constant Hcp at 295 K (mol/(m3 Pa))
# [12] = Henry solubility constant Hcp at 291 K (mol/(m3 Pa))
# [13] = reference: O’Sullivan et al. (1996)
# [14] = reference: Murphy et al. (1983a)
# [15] = reference: Komiyama and Inoue (1980)
# [16] = reference: Elliott and Rowland (1993)
# [17] = reference: Glew and Moelwyn-Hughes (1953)
# [18] = reference: Swain and Thornton (1962)
# [19] = reference: Gan and Yates (1996)
# [20] = reference: Treves et al. (2000)
# [21] = reference: Pividal et al. (1992)
compound,measurement,setting,value
"Cl/C=C\CCl [cis-1,3-dichloropropene]",Henry solubility constant Hcp at 290 K,[1],0.01
same,Henry solubility constant Hcp,[2]; reference: Leistra (1970),0.005
COO [methyl hydroperoxide],Henry solubility constant Hcp at 278 K,[3]; reference: Sauer (1997),12
same,Henry solubility constant Hcp,[2]; reference: Li et al. (2004),2.5
same,Henry solubility constant Hcp,[2]; reference: Lind and Kok (1994),3
same,Henry solubility constant Hcp,[2]; reference: Magi et al. (1997),> 6.9
same,Henry solubility constant Hcp,[2]; [13],3.1
"Clc1cc(Cl)c(-c2ccc(Cl)c(Cl)c2Cl)cc1Cl [2,2',3,4,4',5'-hexachlorobiphenyl]",Henry solubility constant Hcp,[2]; [14],0.021
same,Henry solubility constant Hcp at 294 K,[4]; reference: Brownawell (1986),0.14
"Clc1ccc(Cl)c(-c2ccc(Cl)c(Cl)c2)c1 [2,3',4',5-tetrachlorobiphenyl]",Henry solubility constant Hcp,[2]; [14],0.049
same,Henry solubility constant Hcp at 294 K,[4]; reference: Brownawell (1986),0.11
"Cl/C=C/CCl [trans-1,3-dichloropropene]",Henry solubility constant Hcp at 290 K,[1],0.015
same,Henry solubility constant Hcp,[2]; reference: Leistra (1970),0.0081
[N]=O [nitrogen monoxide],Henry solubility constant Hcp,[2]; reference: Komiyama and Inoue (1978),1.9e-05
same,Henry solubility constant Hcp,[2]; reference: Winkler (1901),1.9e-05
same,Henry solubility constant Hcp at 288 K,[5]; [15],2.3e-05
same,Henry solubility constant Hcp at 297 K,[6]; reference: Zafiriou and McFarland (1980),1.3e-05
CC(C)CC=O [3-methylbutanal],Henry solubility constant Hcp,[2]; reference: Bruneel et al. (2016),0.011
same,Henry solubility constant Hcp,[2]; reference: Pollien et al. (2003),0.026
same,Henry solubility constant Hcp,[2]; reference: Wieland et al. (2015),0.024
same,Henry solubility constant Hcp at 301 K,[7],0.02
O=COO [methanoic peroxyacid],Henry solubility constant Hcp at 278 K,[3]; reference: Sauer (1997),29
c1ccccc1 [benzene],Henry solubility constant Hcp at 303 K,[8]; reference: Saylor et al. (1938),0.0015
same,Henry solubility constant Hcp at 293 K,[9]; reference: Vitenberg et al. (1974),0.0012
same,Henry solubility constant Hcp at 293 K,[9]; reference: Yu (1992),0.0019
same,Henry solubility constant Hcp at 293 K,[9]; reference: Yurteri et al. (1987),0.0013
same,Henry solubility constant Hcp,[2]; reference: Alaee et al. (1996),0.0018
same,Henry solubility constant Hcp,[2]; reference: Allen et al. (1998),0.0018
same,Henry solubility constant Hcp,[2]; reference: Bakierowska and Trzeszczyński (2003),0.0018
same,Henry solubility constant Hcp,[2]; reference: Bierwagen and Keller (2001),0.0019
same,Henry solubility constant Hcp,[2]; reference: Bissonette et al. (1990),0.0016
same,Henry solubility constant Hcp,[2]; reference: Brown and Wasik (1974),0.0017
same,Henry solubility constant Hcp,[2]; reference: Cooling et al. (1992),0.0017
same,Henry solubility constant Hcp,[2]; reference: Ervin et al. (1980),0.0012
same,Henry solubility constant Hcp,[2]; reference: Ettre et al. (1993),0.0018
same,Henry solubility constant Hcp,[2]; reference: Green and Frank (1979),0.0018
same,Henry solubility constant Hcp,[2]; reference: Görgényi et al. (2002),0.0017
same,Henry solubility constant Hcp,[2]; reference: Hartkopf and Karger (1973),0.0021
same,Henry solubility constant Hcp,[2]; reference: Keeley et al. (1988),0.0017
same,Henry solubility constant Hcp,[2]; reference: Khalfaoui and Newsham (1994b),0.0017
same,Henry solubility constant Hcp,[2]; reference: Lau et al. (2010),0.0014
same,Henry solubility constant Hcp,[2]; reference: Lei et al. (2004),0.0014
same,Henry solubility constant Hcp,[2]; reference: Li et al. (2008),0.0018
same,Henry solubility constant Hcp,[2]; reference: Lodge and Danso (2007),0.0025
same,Henry solubility constant Hcp,[2]; reference: Mackay et al. (1979),0.0018
same,Henry solubility constant Hcp,[2]; reference: Nielsen et al. (1994),0.002
same,Henry solubility constant Hcp,[2]; reference: Park et al. (1997),0.0014
same,Henry solubility constant Hcp,[2]; reference: Peng and Wan (1997),0.0019
same,Henry solubility constant Hcp,[2]; reference: Peng and Wan (1998),0.0022
same,Henry solubility constant Hcp,[2]; reference: Perlinger et al. (1993),0.0017
same,Henry solubility constant Hcp,[2]; reference: Robbins et al. (1993),0.0018
same,Henry solubility constant Hcp,[2]; reference: Sanemasa et al. (1981),0.0017
same,Henry solubility constant Hcp,[2]; reference: Sieg et al. (2009),0.0017
same,Henry solubility constant Hcp,[2]; reference: Tsibul’skii et al. (1979),0.0016
same,Henry solubility constant Hcp,[2]; reference: Tsonopoulos and Wilson (1983),0.0018
same,Henry solubility constant Hcp,[2]; reference: Turner et al. (1996),0.0016
same,Henry solubility constant Hcp,[2]; reference: Vitenberg et al. (1975),0.0018
same,Henry solubility constant Hcp,[2]; reference: Warner et al. (1980),0.0018
same,Henry solubility constant Hcp,[2]; reference: Wasik and Tsang (1970),0.0016
same,Henry solubility constant Hcp at 296 K,[10]; reference: Anderson (1992),0.0018
same,Henry solubility constant Hcp at 296 K,[10]; reference: Miller and Stuart (2000),0.0018
same,Henry solubility constant Hcp at 295 K,[11]; reference: de Wolf and Lieder (1998),0.0022
BrBr [bromine (molecular)],Henry solubility constant Hcp at 293 K,[9]; reference: Jenkins and King (1965),0.0096
same,Henry solubility constant Hcp,[2]; reference: Hill et al. (1968),0.0068
same,Henry solubility constant Hcp,[2]; reference: Kelley and Tartar (1956),0.007
same,Henry solubility constant Hcp,[2]; reference: Winkler (1899),0.0079
same,Henry solubility constant Hcp,[2]; reference: Winkler (1906),0.0078
same,Henry solubility constant Hcp at 288 K,[5]; reference: Jones (1911),0.014
CBr [bromomethane],Henry solubility constant Hcp at 290 K,[1],0.002
same,Henry solubility constant Hcp,[2]; reference: De Bruyn and Saltzman (1997),0.0018
same,Henry solubility constant Hcp,[2]; [16],0.0017
same,Henry solubility constant Hcp,[2]; [17],0.0016
same,Henry solubility constant Hcp,[2]; [18],0.0015
same,Henry solubility constant Hcp at 294 K,[4]; [19],0.0014
[O]N=O [nitrogen dioxide],Henry solubility constant Hcp,[2]; reference: Cheung et al. (2000),0.00012
same,Henry solubility constant Hcp at 295 K,[11]; reference: Lee and Schwartz (1981),6.9e-05
same,Henry solubility constant Hcp at 288 K,[5]; [15],0.00023
CC(=O)OO [ethanoic peroxyacid],Henry solubility constant Hcp at 278 K,[3]; reference: Sauer (1997),24
same,Henry solubility constant Hcp,[2]; reference: Lind and Kok (1994),6.5
same,Henry solubility constant Hcp,[2]; [13],8.3
O=C(Cl)C(Cl)(Cl)Cl [trichloroacetylchloride],Henry solubility constant Hcp at 278 K,[3]; reference: De Bruyn et al. (1995a),0.02
same,Henry solubility constant Hcp,[2]; reference: George et al. (1994a),0.02
same,Henry solubility constant Hcp,[2]; reference: Mirabel et al. (1996),0.02
CCC(O)CO[N+](=O)[O-] (stereo not drawn) [1-nitrooxy-2-butanol],Henry solubility constant Hcp at 291 K,[12]; [20],89
O=[O+][O-] [ozone],Henry solubility constant Hcp at 293 K,[9]; reference: Gurol and Singer (1982),0.00017
same,Henry solubility constant Hcp at 293 K,[9]; reference: Levanov et al. (2008),0.00011
same,Henry solubility constant Hcp,[2]; reference: Andreozzi et al. (1996),9.2e-05
same,Henry solubility constant Hcp,[2]; reference: Briner and Perrottet (1939),0.00013
same,Henry solubility constant Hcp,[2]; reference: Fischer and Tropsch (1917),0.0002
same,Henry solubility constant Hcp,[2]; reference: Gershenzon et al. (2001),0.00011
same,Henry solubility constant Hcp,[2]; reference: Kilpatrick et al. (1956),9.9e-05
same,Henry solubility constant Hcp,[2]; reference: Kosak-Channing and Helz (1983),0.00011
same,Henry solubility constant Hcp,[2]; reference: Luther (1905),8e-05
same,Henry solubility constant Hcp,[2]; reference: Mailfert (1894),0.00012
same,Henry solubility constant Hcp,[2]; reference: Rischbieter et al. (2000),9.9e-05
same,Henry solubility constant Hcp,[2]; reference: Sotelo et al. (1989),0.00012
same,Henry solubility constant Hcp,[2]; reference: Stumm (1958),0.00012
same,Henry solubility constant Hcp at 291 K,[12]; reference: Schöne (1873),0.00012
CC(O)CCO[N+](=O)[O-] (stereo not drawn) [4-nitrooxy-2-butanol],Henry solubility constant Hcp at 291 K,[12]; [20],130
CCOC(C)=O [ethyl ethanoate],Henry solubility constant Hcp at 303 K,[8]; reference: Richon et al. (1985),0.043
same,Henry solubility constant Hcp,[2]; reference: Ammari and Schroen (2019),0.052
same,Henry solubility constant Hcp,[2]; reference: Aprea et al. (2007),0.051
same,Henry solubility constant Hcp,[2]; reference: Butler and Ramchandani (1935),0.074
same,Henry solubility constant Hcp,[2]; reference: Druaux et al. (1998),0.066
same,Henry solubility constant Hcp,[2]; reference: Fenclová et al. (2014),0.062
same,Henry solubility constant Hcp,[2]; reference: Jones et al. (1988),0.062
same,Henry solubility constant Hcp,[2]; reference: Kieckbusch and King (1979b),0.058
same,Henry solubility constant Hcp,[2]; reference: Kutsuna and Kaneyasu (2021),0.059
same,Henry solubility constant Hcp,[2]; reference: Kutsuna et al. (2005),0.059
same,Henry solubility constant Hcp,[2]; reference: Landy et al. (1995),0.057
same,Henry solubility constant Hcp at 288 K,[5]; reference: Ioffe et al. (1984),0.13
same,Henry solubility constant Hcp at 288 K,[5]; [21],0.11
same,Henry solubility constant Hcp at 301 K,[7],0.057
"Clc1ccc(-c2ccccc2Cl)cc1 [2,4'-dichlorobiphenyl]",Henry solubility constant Hcp,[2]; reference: Charles and Destaillats (2005),0.023
same,Henry solubility constant Hcp,[2]; [14],0.045
same,Henry solubility constant Hcp at 294 K,[4]; reference: Brownawell (1986),0.057
CCC(CO)O[N+](=O)[O-] (stereo not drawn) [2-nitrooxy-1-butanol],Henry solubility constant Hcp at 291 K,[12]; [20],88
O=[N+]([O-])OCCCCO [4-nitrooxy-1-butanol],Henry solubility constant Hcp at 291 K,[12]; [20],290
CCOO [ethyl hydroperoxide],Henry solubility constant Hcp at 278 K,[3]; reference: Sauer (1997),11
same,Henry solubility constant Hcp,[2]; [13],3.3
CC(C)O [2-propanol],Henry solubility constant Hcp at 293 K,[9]; reference: Yu (1992),0.98
same,Henry solubility constant Hcp,[2]; reference: Butler et al. (1935),1.2
same,Henry solubility constant Hcp,[2]; reference: Kim et al. (2000),1.1
same,Henry solubility constant Hcp,[2]; reference: Lin and Chou (2006),1.3
same,Henry solubility constant Hcp,[2]; reference: Snider and Dawson (1985),1.2
same,Henry solubility constant Hcp at 288 K,[5]; [21],1.4
CI [iodomethane],Henry solubility constant Hcp,[2]; reference: Balls (1980),0.002
same,Henry solubility constant Hcp,[2]; [16],0.002
same,Henry solubility constant Hcp,[2]; [17],0.0019
same,Henry solubility constant Hcp,[2]; reference: Hunter-Smith et al. (1983),0.0019
same,Henry solubility constant Hcp,[2]; [18],0.0018
same,Henry solubility constant Hcp at 294 K,[4]; [19],0.0019
C[Si]1(C)O[Si](C)(C)O[Si](C)(C)O[Si](C)(C)O[Si](C)(C)O[Si](C)(C)O1 [dodecamethylcyclohexasiloxane],Henry solubility constant Hcp at 297 K,[6]; reference: Xu and Kropscott (2012),4e-07
